The test system of one series is Aphidius rhopalosiphi. The series can be described thus: LR50; higher = less toxic. To be noted: acute; duration: 48 hours; mortality.
In another series the test system is Rattus norvegicus. Conditions: reproduction developmental.
The test system of the next series is Bibionidae. To be noted: chronic/long-term; development.
A further series has as its system Canidae. Conditions: chronic; duration: 6 months; oral; Dog Other; clinical signs.
A further series concerns Tagia sp. To be noted: acute; mortality.
In a further series the test system is Anas platyrhynchos. Conditions: short-term; oral; feed; mortality.
Another series has as its system Apis mellifera. To be noted: acute; duration: 48 hours; dermal; mortality.
In the next series the test system is Daphnia magna. To be noted: chronic/long-term; duration: 21 days; reproduction.

≈ marks a conversion by molar mass, not a printed value.

For orientation: NOAEL means the highest tested level that showed no adverse finding.

Turning to `COP(=S)(OC)Oc1c(Cl)cc(C)cc1Cl` [Tolclofos-methyl], the LR50 in the series with Aphidius rhopalosiphi stood at 43.7 g/ha. Further, the NOEC in the series on Rattus norvegicus amounted to 70.6 mg/kg-day; in the series with Bibionidae, 0.25 mg/L; with Oncorhynchus mykiss (chronic/long-term, duration: 97 days, growth), 0.012 mg/L; with Daphnia magna, 0.026 mg/L. In addition, the LD50 is over 5000 mg/kg in the series with Colinus virginianus (acute, oral, mortality); over 100 µg/piece with Apis mellifera; 3500 mg/kg with Mus musculus (acute, oral, mortality). The NOEL with Colinus virginianus (reproduction developmental) was determined as 49 mg/kg-day. Moreover, the NOAEL in the series with Canidae stood at 21 mg/kg-day; in the series on Mus musculus (chronic, duration: 2 years, clinical signs), 6.4 mg/kg-day. Besides, the LC50 with Tagia sp. was over 1000 mg/kg; with Anas platyrhynchos it was over 1620 mg/kg-day; in the series on Oncorhynchus mykiss (acute, duration: 96 hours, mortality) it was 0.69 µg/mL (≈ 2.29 µM).

(Values after EPA's ToxValDB 9.5 (doi:10.2903/j.efsa.2005.32ar).)
